{"source": "patent EP3355943B1", "about": "“METHODS AND SYSTEMS FOR TREATING MEDICAL DEVICES AND FLUIDS” (Ethicon, Inc., priority 2015, dated 2017)", "assay": "Effect of storage (dwell time) on efficacy of pre-mixed CaSt suspensions, sonicated or vortexed", "type": "biochemical", "experimental": "Efficacy of pre-mixed CaSt suspensions (sonicated and vortexed) was tested, comparing efficacy of immediately prepared suspensions with suspensions having shelf life or dwell time of 90 min, 5 days, and 1 month prior to contact with endotoxin containing solutions.\n10 mL SRW was then introduced to the sonicated CaSt mixture. It was then vortexed for 5 seconds to fully incorporate the sonicated CaSt. The mixture was then tested after 15 minutes of interaction to measure the percent decrease of endotoxin.\n10 mL SRW was then introduced to the vortexed CaSt mixture. It was then vortexed for 5 seconds to fully incorporate the sonicated CaSt. The mixture was then tested after 15 minutes of interaction to measure the percent decrease of endotoxin.\nThese mixtures were then tested on the Charles River MCS at a dilution of 1:2000 after 15 minutes of interaction.\nTesting of suspensions having shelf life or dwell time of 90 min, 5 days, and 1 month prior to contact with endotoxin containing solutions.\nTest samples were prepared as described above, sonicated and vortexed, but were subjected to shelf life or dwell time of 90 min, 5 days, and 1 month prior to contact with endotoxin containing solution (SRW). After dwell time exposure, similarly to the immediate mixing test above, 10 mL SRW was then introduced to the sonicated or vortexed CaSt mixture. It was then vortexed for 5 seconds to fully incorporate the sonicated CaSt. The mixture was then tested after 15 minutes of interaction to measure the percent decrease of endotoxin. These mixtures were then tested on the Charles River MCS at a dilution of 1:2000 after 15 minutes of interaction.\n*The 1 month shelf life sample was only tested at 0.04g CaSt and measured the percent removal after 15 minutes of interaction as well as 30 minutes after interaction.", "data": [{"smiles": "CCCCCCCCCCCCCCCCCC(=O)O", "note": "[Calcium Stearate]", "values": [{"measurement": "Percent Endotoxin Removed", "setting": "0.02 g CaSt, Vortexed, 5 Day dwell time, listed as Aged Vortexed CaSt #3", "value": 60, "unit": "%"}, {"measurement": "Percent Endotoxin Removed", "setting": "0.02 g CaSt, Vortexed, 5 Day dwell time, listed as Aged Vortexed CaSt #4", "value": 68, "unit": "%"}, {"measurement": "Average Percent Change", "setting": "0.02 g CaSt, Vortexed, 90 min dwell time", "value": 43, "unit": "%"}, {"measurement": "EU After", "setting": "0.02 g CaSt, Vortexed, 90 min dwell time, 15 minutes, EU Before 36,100, listed as Aged Vortexed CaSt #1", "value": "22,400 EU"}, {"measurement": "EU After", "setting": "0.02 g CaSt, Vortexed, 90 min dwell time, 15 minutes, EU Before 36,100, listed as Aged Vortexed CaSt #2", "value": 19280, "unit": "EU"}, {"measurement": "Percent Endotoxin Removed", "setting": "0.02 g CaSt, Vortexed, 90 min dwell time, listed as Aged Vortexed CaSt #1", "value": 38, "unit": "%"}, {"measurement": "Percent Endotoxin Removed", "setting": "0.02 g CaSt, Vortexed, 90 min dwell time, listed as Aged Vortexed CaSt #2", "value": 47, "unit": "%"}, {"measurement": "Average Percent Change", "setting": "0.02 g CaSt, Vortexed, Immediate Mixing", "value": 32, "unit": "%"}, {"measurement": "EU After", "setting": "0.02 g CaSt, Vortexed, Immediate Mixing, 15 minutes, EU Before 36,100, listed as Aged Vortexed CaSt #1", "value": "29,200 EU"}, {"measurement": "EU After", "setting": "0.02 g CaSt, Vortexed, Immediate Mixing, 15 minutes, EU Before 36,100, listed as Aged Vortexed CaSt #2", "value": "20,480 EU"}, {"measurement": "Percent Endotoxin Removed", "setting": "0.02 g CaSt, Vortexed, Immediate Mixing, listed as Aged Vortexed CaSt #1", "value": 20, "unit": "%"}, {"measurement": "Percent Endotoxin Removed", "setting": "0.02 g CaSt, Vortexed, Immediate Mixing, listed as Aged Vortexed CaSt #2", "value": 43, "unit": "%"}, {"measurement": "EU After", "setting": "0.04 g CaSt, Sonicated, Immediate Mixing with 10 mL SRW, 15 minutes, EU Before 36,100, listed as Sonicated CaSt #1", "value": "5,320 EU"}, {"measurement": "EU After", "setting": "0.04 g CaSt, Sonicated, Immediate Mixing with 10 mL SRW, 15 minutes, EU Before 36,100, listed as Sonicated CaSt #2", "value": "5,800 EU"}, {"measurement": "Average Percent Change", "setting": "0.04 g CaSt, Sonicated, Immediate Mixing, 15 minutes", "value": 85, "unit": "%"}, {"measurement": "Percent Endotoxin Removed", "setting": "0.04 g CaSt, Sonicated, Immediate Mixing, 15 minutes, listed as Sonicated CaSt #1", "value": 85, "unit": "%"}, {"measurement": "Percent Endotoxin Removed", "setting": "0.04 g CaSt, Sonicated, Immediate Mixing, 15 minutes, listed as Sonicated CaSt #2", "value": 84, "unit": "%"}, {"measurement": "Average Percent Change", "setting": "0.04 g CaSt, Sonicated, Mixing after 1 Month dwell time", "value": 50, "unit": "%"}, {"measurement": "EU After", "setting": "0.04 g CaSt, Sonicated, Mixing after 1 Month dwell time, 15 minutes, EU Before 14650, listed as Aged Sonicated CaSt #1", "value": 7440, "unit": "EU"}, {"measurement": "EU After", "setting": "0.04 g CaSt, Sonicated, Mixing after 1 Month dwell time, 15 minutes, EU Before 14650, listed as Aged Sonicated CaSt #2", "value": 7240, "unit": "EU"}, {"measurement": "Percent Endotoxin Removed", "setting": "0.04 g CaSt, Sonicated, Mixing after 1 Month dwell time, listed as Aged Sonicated CaSt #1", "value": 49.2, "unit": "%"}, {"measurement": "Percent Endotoxin Removed", "setting": "0.04 g CaSt, Sonicated, Mixing after 1 Month dwell time, listed as Aged Sonicated CaSt #2", "value": 50.6, "unit": "%"}, {"measurement": "Average Percent Change", "setting": "0.04 g CaSt, Sonicated, Mixing after 5 Days dwell time", "value": 85, "unit": "%"}, {"measurement": "EU After", "setting": "0.04 g CaSt, Sonicated, Mixing after 5 Days dwell time, 15 minutes, EU Before 37,800, listed as Aged Sonicated CaSt #3", "value": "5,040 EU"}, {"measurement": "EU After", "setting": "0.04 g CaSt, Sonicated, Mixing after 5 Days dwell time, 15 minutes, EU Before 37,800, listed as Aged Sonicated CaSt #4", "value": "6,560 EU"}, {"measurement": "Percent Endotoxin Removed", "setting": "0.04 g CaSt, Sonicated, Mixing after 5 Days dwell time, listed as Aged Sonicated CaSt #3", "value": 87, "unit": "%"}, {"measurement": "Percent Endotoxin Removed", "setting": "0.04 g CaSt, Sonicated, Mixing after 5 Days dwell time, listed as Aged Sonicated CaSt #4", "value": 83, "unit": "%"}, {"measurement": "Average Percent Change", "setting": "0.04 g CaSt, Sonicated, Mixing after 90 min dwell time", "value": 81, "unit": "%"}, {"measurement": "EU After", "setting": "0.04 g CaSt, Sonicated, Mixing after 90 min dwell time, 15 minutes, EU Before 36,100, listed as Aged Sonicated CaSt #1", "value": 6168, "unit": "EU"}, {"measurement": "EU After", "setting": "0.04 g CaSt, Sonicated, Mixing after 90 min dwell time, 15 minutes, EU Before 36,100, listed as Aged Sonicated CaSt #2", "value": "8,000 EU"}, {"measurement": "Percent Endotoxin Removed", "setting": "0.04 g CaSt, Sonicated, Mixing after 90 min dwell time, listed as Aged Sonicated CaSt #1", "value": 83, "unit": "%"}, {"measurement": "Percent Endotoxin Removed", "setting": "0.04 g CaSt, Sonicated, Mixing after 90 min dwell time, listed as Aged Sonicated CaSt #2", "value": 78, "unit": "%"}, {"measurement": "Average Percent Change", "setting": "0.04 g CaSt, Vortexed, Immediate Mixing", "value": 44, "unit": "%"}, {"measurement": "EU After", "setting": "0.04 g CaSt, Vortexed, Immediate Mixing, 15 minutes, EU Before 36,100, listed as Aged Vortexed CaSt #1", "value": "19,840 EU"}, {"measurement": "EU After", "setting": "0.04 g CaSt, Vortexed, Immediate Mixing, 15 minutes, EU Before 36,100, listed as Aged Vortexed CaSt #2", "value": 20480, "unit": "EU"}, {"measurement": "Percent Endotoxin Removed", "setting": "0.04 g CaSt, Vortexed, Immediate Mixing, listed as Aged Vortexed CaSt #1", "value": 45, "unit": "%"}, {"measurement": "Percent Endotoxin Removed", "setting": "0.04 g CaSt, Vortexed, Immediate Mixing, listed as Aged Vortexed CaSt #2", "value": 43, "unit": "%"}, {"measurement": "Average Percent Change", "setting": "0.04 g CaSt, Vortexed, Mixing after 5 Days dwell time", "value": 75, "unit": "%"}, {"measurement": "EU After", "setting": "0.04 g CaSt, Vortexed, Mixing after 5 Days dwell time, 15 minutes, EU Before 37,800, listed as Aged Vortexed CaSt #3", "value": "9,080 EU"}, {"measurement": "EU After", "setting": "0.04 g CaSt, Vortexed, Mixing after 5 Days dwell time, 15 minutes, EU Before 37,800, listed as Aged Vortexed CaSt #4", "value": "9,760 EU"}, {"measurement": "Percent Endotoxin Removed", "setting": "0.04 g CaSt, Vortexed, Mixing after 5 Days dwell time, listed as Aged Vortexed CaSt #3", "value": 76, "unit": "%"}, {"measurement": "Percent Endotoxin Removed", "setting": "0.04 g CaSt, Vortexed, Mixing after 5 Days dwell time, listed as Aged Vortexed CaSt #4", "value": 74, "unit": "%"}, {"measurement": "Average Percent Change", "setting": "0.04 g CaSt, Vortexed, Mixing after 90 min dwell time", "value": 54, "unit": "%"}, {"measurement": "EU After", "setting": "0.04 g CaSt, Vortexed, Mixing after 90 min dwell time, 15 minutes, EU Before 36,100, listed as Aged Vortexed CaSt #1", "value": "17,120 EU"}, {"measurement": "EU After", "setting": "0.04 g CaSt, Vortexed, Mixing after 90 min dwell time, 15 minutes, EU Before 36,100, listed as Aged Vortexed CaSt #2", "value": "16,460 EU"}, {"measurement": "Percent Endotoxin Removed", "setting": "0.04 g CaSt, Vortexed, Mixing after 90 min dwell time, listed as Aged Vortexed CaSt #1", "value": 53, "unit": "%"}, {"measurement": "Percent Endotoxin Removed", "setting": "0.04 g CaSt, Vortexed, Mixing after 90 min dwell time, listed as Aged Vortexed CaSt #2", "value": 54, "unit": "%"}]}]}
